Test results published in ChEMBL document CHEMBL2331532, “(+)-Laburnamine, a natural selective ligand and partial agonist for the α4β2 nicotinic receptor subtype” (J Nat Prod, 2013).
Activity calls are given as the source filed them. No cut-off for these calls is given here.

What was measured:
[1] = target: Neuronal acetylcholine receptor; alpha4/beta2 (Homo sapiens, UniProt P17787+P43681); assay: Displacement of [3H]epibatidine from alpha4beta2 nAChR (unknown origin); assay type: protein-complex assay
[2] = target: Neuronal acetylcholine receptor subunit alpha-7 (Homo sapiens, UniProt P36544); assay: Displacement of [3H]methyllycaconitine from alpha7 nAChR (unknown origin)
[3] = target: T1, Neuronal acetylcholine receptor; alpha4/beta2 (Rattus norvegicus, UniProt P09483+P12390); assay: Displacement of [3H]epibatidine from alpha4beta2 nAChR in rat cortex
T1 sequence (P09483 whole entry): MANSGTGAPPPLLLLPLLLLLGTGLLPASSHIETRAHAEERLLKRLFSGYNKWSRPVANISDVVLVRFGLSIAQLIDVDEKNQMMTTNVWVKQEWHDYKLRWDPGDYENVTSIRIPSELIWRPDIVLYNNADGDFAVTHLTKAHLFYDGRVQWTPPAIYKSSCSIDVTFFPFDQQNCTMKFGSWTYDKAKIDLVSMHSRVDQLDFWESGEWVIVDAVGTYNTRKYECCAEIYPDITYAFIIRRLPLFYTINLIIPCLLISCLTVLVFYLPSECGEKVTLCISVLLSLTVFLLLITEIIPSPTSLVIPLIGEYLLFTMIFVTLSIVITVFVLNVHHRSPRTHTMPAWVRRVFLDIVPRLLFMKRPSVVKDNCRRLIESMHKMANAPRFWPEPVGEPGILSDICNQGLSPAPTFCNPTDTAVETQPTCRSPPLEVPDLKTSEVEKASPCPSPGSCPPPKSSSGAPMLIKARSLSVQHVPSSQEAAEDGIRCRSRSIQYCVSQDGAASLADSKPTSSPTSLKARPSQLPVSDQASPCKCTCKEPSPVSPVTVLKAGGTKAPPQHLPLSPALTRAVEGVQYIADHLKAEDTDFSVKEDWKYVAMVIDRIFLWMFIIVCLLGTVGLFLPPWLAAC
T1 sequence (P12390 whole entry): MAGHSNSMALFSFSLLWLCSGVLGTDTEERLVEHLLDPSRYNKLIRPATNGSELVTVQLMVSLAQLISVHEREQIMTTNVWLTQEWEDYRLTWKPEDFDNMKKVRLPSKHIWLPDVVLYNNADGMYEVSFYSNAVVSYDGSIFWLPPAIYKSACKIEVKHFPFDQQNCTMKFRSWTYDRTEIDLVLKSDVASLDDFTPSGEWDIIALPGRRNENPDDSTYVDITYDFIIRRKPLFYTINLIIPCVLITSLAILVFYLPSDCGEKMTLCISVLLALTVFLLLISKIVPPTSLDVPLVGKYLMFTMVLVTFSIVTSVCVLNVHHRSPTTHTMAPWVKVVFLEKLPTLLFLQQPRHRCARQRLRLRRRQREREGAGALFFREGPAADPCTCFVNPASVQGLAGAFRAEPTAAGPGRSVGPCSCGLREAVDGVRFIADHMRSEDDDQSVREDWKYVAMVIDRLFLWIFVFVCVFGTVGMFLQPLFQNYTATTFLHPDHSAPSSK

[4] = target: Neuronal acetylcholine receptor subunit alpha-7 (Rattus norvegicus, UniProt Q05941); assay: Displacement of [125I]alpha-bungarotoxin from alpha7 nAChR from rat hippocampus; assay type: tissue-based
Sequence of Neuronal acetylcholine receptor subunit alpha-7 (Rattus norvegicus, UniProt Q05941) (Q05941 whole entry): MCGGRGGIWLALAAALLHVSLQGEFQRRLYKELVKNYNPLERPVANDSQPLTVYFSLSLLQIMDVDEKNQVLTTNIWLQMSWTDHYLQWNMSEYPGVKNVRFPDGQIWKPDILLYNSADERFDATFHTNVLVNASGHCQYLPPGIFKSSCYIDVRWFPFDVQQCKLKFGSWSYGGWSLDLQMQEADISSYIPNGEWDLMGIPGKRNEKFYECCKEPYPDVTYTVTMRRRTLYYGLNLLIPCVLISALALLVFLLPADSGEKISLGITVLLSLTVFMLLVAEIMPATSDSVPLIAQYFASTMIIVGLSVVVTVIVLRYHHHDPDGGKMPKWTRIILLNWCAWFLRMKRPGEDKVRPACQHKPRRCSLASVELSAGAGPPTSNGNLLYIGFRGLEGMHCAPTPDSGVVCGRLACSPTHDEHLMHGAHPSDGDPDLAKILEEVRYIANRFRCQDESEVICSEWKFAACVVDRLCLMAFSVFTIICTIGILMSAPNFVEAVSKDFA

[5] = target: T2, Neuronal acetylcholine receptor; alpha4/beta2 (Rattus norvegicus) (UniProt P09483+P12390); assay: Displacement of [3H]epibatidine from alpha4beta2 nAChR in rat cortex up to 100 uM
[6] = target: Neuronal acetylcholine receptor; alpha3/beta4 (Homo sapiens, UniProt P30926+P32297); assay: Displacement of [3H]epibatidine from human alpha3beta4 nAChR expressed in HEK cells; assay type: cell-based, HEK293
Sequence of Neuronal acetylcholine receptor; alpha3/beta4 (P30926 whole entry): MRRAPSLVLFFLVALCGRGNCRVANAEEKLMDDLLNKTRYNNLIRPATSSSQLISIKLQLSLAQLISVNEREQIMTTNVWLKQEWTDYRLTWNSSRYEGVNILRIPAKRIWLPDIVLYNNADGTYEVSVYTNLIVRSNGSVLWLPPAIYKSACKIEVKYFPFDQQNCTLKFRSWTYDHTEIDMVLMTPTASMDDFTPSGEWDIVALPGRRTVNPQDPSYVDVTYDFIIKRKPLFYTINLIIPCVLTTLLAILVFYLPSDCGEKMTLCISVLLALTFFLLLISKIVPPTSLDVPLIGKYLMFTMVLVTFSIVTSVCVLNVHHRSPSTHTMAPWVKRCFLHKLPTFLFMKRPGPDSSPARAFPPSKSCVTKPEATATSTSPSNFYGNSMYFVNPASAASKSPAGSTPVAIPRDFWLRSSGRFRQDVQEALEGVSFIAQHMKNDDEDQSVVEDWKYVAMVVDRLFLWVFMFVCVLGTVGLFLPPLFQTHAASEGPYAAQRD
Sequence of Neuronal acetylcholine receptor; alpha3/beta4 (P32297 whole entry): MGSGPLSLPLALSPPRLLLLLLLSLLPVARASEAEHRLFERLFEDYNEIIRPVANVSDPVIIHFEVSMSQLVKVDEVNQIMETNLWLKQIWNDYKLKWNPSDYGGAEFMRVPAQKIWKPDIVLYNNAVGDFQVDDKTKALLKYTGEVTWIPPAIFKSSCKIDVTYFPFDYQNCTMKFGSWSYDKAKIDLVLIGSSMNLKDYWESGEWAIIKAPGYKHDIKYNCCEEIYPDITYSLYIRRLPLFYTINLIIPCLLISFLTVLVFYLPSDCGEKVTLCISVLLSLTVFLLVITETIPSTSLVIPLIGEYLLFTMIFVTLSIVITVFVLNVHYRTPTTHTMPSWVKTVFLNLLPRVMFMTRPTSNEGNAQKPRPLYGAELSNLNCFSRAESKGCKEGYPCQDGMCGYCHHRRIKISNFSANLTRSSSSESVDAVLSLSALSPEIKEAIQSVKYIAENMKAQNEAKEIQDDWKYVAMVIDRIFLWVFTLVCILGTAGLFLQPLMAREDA

[7] = target: T1, Neuronal acetylcholine receptor; alpha4/beta2; assay: Agonist activity at alpha4beta2 nAChR in rat brain striatal slices assessed as release of [3H]dopamine release; assay type: tissue-based
[8] = Selectivity ratio of Ki for human alpha3beta4 nAChR to Ki for alpha4beta2 nAChR in rat cortex
Rattus norvegicus = organism: Rattus norvegicus; assay: Selectivity ratio of Ki for alpha7 nAChR in rat hippocampus to Ki for alpha4beta2 nAChR in rat cortex; assay type: tissue-based
[9] = target: T2, Neuronal acetylcholine receptor; alpha4/beta2 (Rattus norvegicus); assay: Agonist activity at alpha4beta2 nAChR in rat brain striatal slices assessed as release of [3H]dopamine release relative to nicotine; assay type: tissue-based
[10] = target: T3, Acetylcholine receptor; alpha1/beta1/delta/gamma (Homo sapiens, UniProt P02708+P07510+P11230+Q07001); assay: Displacement of [125I]alpha-bungarotoxin from human alpha2betagammadelta nAChR; assay type: protein-complex assay
T3 sequence (P02708 whole entry): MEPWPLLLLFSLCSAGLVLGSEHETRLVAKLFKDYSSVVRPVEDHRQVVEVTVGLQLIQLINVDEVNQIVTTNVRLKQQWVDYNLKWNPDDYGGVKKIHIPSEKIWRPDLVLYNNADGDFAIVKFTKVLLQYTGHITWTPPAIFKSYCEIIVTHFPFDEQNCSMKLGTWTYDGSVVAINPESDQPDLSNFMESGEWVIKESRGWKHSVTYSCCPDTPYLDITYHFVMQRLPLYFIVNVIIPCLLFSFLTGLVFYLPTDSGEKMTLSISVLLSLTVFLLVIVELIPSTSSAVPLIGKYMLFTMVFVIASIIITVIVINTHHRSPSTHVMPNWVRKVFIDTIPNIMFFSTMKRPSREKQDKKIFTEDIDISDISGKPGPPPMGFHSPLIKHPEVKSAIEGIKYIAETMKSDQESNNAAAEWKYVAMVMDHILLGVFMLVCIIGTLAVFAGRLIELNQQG
T3 sequence (P07510 whole entry): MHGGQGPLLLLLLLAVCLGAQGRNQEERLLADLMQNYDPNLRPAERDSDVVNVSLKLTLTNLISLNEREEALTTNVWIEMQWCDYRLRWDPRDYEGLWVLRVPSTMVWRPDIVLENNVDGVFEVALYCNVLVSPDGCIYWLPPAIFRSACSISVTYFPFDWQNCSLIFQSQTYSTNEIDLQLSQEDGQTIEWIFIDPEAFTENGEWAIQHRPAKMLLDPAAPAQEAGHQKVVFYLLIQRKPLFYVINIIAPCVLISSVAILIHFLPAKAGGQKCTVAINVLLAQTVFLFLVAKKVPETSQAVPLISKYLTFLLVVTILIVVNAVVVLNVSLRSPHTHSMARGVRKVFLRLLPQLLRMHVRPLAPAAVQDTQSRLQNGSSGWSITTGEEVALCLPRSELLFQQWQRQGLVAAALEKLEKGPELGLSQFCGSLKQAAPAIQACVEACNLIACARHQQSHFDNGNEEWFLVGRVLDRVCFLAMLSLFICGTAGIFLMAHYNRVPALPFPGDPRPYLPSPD
T3 sequence (P11230 whole entry): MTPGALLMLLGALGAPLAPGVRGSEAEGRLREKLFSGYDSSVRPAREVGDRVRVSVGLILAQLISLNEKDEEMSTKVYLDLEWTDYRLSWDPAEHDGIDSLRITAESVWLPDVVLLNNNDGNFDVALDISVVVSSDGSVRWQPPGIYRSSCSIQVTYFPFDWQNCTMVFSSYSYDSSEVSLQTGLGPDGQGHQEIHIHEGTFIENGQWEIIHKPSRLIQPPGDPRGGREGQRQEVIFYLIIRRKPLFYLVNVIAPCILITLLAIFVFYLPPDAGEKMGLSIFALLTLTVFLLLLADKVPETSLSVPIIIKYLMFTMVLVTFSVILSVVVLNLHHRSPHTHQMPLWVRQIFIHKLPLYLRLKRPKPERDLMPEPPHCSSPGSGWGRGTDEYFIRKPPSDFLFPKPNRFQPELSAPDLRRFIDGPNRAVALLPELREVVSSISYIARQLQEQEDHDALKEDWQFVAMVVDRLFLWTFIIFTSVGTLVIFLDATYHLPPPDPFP
T3 sequence (Q07001 whole entry): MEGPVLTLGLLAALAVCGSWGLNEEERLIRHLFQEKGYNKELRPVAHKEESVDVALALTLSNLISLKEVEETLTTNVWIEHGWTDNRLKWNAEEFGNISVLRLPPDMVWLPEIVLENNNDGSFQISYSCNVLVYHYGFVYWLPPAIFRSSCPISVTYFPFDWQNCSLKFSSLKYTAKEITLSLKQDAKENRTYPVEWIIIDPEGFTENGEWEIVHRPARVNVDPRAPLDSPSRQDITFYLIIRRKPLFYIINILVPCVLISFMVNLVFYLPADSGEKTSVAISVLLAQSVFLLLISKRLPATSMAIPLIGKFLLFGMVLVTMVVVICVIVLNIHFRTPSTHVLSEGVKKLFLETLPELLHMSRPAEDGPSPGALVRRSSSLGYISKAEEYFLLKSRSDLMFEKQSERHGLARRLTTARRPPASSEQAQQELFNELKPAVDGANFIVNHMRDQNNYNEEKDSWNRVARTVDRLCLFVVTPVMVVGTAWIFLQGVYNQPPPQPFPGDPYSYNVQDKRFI

[11] = target: T2, Neuronal acetylcholine receptor; alpha4/beta2 (Rattus norvegicus); assay: (§1) Antagonist activity at alpha4beta2 nAChR in rat brain striatal slices assessed as inhibition of nicotine-induced release of [3H]dopamine release; assay type: tissue-based; settings: concentration not given here
[12] = target: T1, Neuronal acetylcholine receptor; alpha4/beta2; assay: as §1; assay type: tissue-based
[13] = target: T3, Acetylcholine receptor; alpha1/beta1/delta/gamma; assay: Displacement of [125I]alpha-bungarotoxin from human alpha2betagammadelta nAChR at 10 uM; assay type: protein-complex assay

## CC(=O)C1=CC[C@@H]2CC[C@H]1N2
[1]
  Ki: 0.094 µM
[2]
  Ki: 100 µM

## CC(C)C(=O)N[C@H]1CCN2CCCC[C@@H]12 (racemic)
[3]
  Ki: 283 µM
[4]
  Ki: 26 µM

## CC(=O)N[C@H]1CCCN2CCCC[C@@H]12
[5]
  Activity: inactive

## CC(C)C(=O)N[C@@H]1CCN2CCCC[C@@H]12 (racemic)
[3]
  Ki: 100 µM
[4]
  Ki: 29 µM

## CC(C)C(=O)N[C@H]1CCCN2CCCC[C@@H]12 (racemic)
[3]
  Ki: 6.81 µM

## O=c1cccc2n1C[C@@H]1CNC[C@H]2C1 [CYTISINICLINE]
[3]
  Ki: 0.0021 µM
[4]
  Ki: 0.23 µM
[6]
  Ki: 0.28 µM

## CCC(=O)N[C@H]1CCCN2CCCC[C@@H]12 (racemic)
[3]
  Ki: 4.44 µM

## CC(C)C(=O)N[C@H]1CCCN2CCCC[C@H]12 (racemic)
[3]
  Ki: 6.05 µM

## CCC(=O)N[C@H]1CCCN2CCCC[C@H]12 (racemic)
[3]
  Ki: 6.15 µM

## CCC(C)C(=O)N[C@H]1CCN2CCC[C@H]12 (stereo not given in full)
[7]
  EC50: 5.8 µM
[8]
  Ratio Ki: 126
Rattus norvegicus
  Ratio Ki: 136
[9]
  Efficacy: 43%
[3]
  Ki: 0.29 µM
[10]
  Ki: > 10 µM
[4]
  Ki: 40 µM
[11]
  inhibition: 46%
[12]
  IC50: 1.6 µM
[13]
  Activity: 5%
[6]
  Ki: 37 µM
